Legend:
[1] = molecular target: T1, Adrenergic receptor alpha-2 (Rattus norvegicus, UniProt P22086+P19328+P22909); assay: Alpha-2-adrenolytic activity was assessed from the ability to inhibit [3H]yohimbine binding to rat cerebral cortex preparation; format: tissue-based
T1 sequence (P22086 whole entry): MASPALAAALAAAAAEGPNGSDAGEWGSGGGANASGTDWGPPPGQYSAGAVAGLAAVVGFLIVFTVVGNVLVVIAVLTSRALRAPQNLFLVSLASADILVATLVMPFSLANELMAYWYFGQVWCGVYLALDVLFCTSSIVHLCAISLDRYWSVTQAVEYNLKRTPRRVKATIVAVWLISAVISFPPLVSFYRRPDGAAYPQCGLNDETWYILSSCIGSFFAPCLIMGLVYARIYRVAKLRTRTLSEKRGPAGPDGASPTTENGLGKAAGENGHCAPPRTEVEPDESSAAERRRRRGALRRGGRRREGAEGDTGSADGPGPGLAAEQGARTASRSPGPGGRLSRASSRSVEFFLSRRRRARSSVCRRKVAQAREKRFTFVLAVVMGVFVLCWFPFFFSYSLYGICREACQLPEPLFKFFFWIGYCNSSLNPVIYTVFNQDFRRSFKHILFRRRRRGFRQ
T1 sequence (P19328 whole entry): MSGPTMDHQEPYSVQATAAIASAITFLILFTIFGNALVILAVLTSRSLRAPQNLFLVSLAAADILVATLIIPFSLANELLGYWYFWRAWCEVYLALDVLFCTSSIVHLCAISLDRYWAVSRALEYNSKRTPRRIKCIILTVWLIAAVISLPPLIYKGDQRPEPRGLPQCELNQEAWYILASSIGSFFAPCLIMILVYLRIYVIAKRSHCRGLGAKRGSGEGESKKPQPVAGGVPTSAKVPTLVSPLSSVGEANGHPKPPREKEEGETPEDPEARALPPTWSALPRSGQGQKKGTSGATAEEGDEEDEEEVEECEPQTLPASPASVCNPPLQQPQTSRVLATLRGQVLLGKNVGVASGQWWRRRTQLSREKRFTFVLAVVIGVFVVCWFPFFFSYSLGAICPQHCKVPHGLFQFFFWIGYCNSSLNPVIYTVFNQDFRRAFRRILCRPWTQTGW
T1 sequence (P22909 whole entry): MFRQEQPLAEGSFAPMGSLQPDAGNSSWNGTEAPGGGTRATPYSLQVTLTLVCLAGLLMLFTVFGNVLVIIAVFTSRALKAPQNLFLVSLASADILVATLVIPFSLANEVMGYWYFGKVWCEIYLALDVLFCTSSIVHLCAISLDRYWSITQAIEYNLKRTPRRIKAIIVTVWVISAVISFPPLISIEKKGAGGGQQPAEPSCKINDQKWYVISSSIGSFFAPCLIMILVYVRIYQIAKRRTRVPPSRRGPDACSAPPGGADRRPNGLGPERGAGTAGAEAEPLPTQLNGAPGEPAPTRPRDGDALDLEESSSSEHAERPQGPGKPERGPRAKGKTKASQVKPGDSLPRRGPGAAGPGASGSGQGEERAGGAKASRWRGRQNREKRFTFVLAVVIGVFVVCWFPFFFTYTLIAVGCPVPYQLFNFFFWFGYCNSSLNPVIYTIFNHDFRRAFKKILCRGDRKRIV

Rattus norvegicus = species: Rattus norvegicus; assay: Calcium antagonistic activity was evaluated by in vitro inhibition of [3H]nitrendipine binding on rat cerebral cortex; format: functional
[2] = molecular target: T2, Adrenergic receptor alpha-1 (Rattus norvegicus, UniProt P15823+P23944+P43140); assay: Alpha-1-adrenolytic activity was assessed from the ability to inhibit [3H]prazosin binding to rat cerebral cortex preparation; format: tissue-based
T2 sequence (P15823 whole entry): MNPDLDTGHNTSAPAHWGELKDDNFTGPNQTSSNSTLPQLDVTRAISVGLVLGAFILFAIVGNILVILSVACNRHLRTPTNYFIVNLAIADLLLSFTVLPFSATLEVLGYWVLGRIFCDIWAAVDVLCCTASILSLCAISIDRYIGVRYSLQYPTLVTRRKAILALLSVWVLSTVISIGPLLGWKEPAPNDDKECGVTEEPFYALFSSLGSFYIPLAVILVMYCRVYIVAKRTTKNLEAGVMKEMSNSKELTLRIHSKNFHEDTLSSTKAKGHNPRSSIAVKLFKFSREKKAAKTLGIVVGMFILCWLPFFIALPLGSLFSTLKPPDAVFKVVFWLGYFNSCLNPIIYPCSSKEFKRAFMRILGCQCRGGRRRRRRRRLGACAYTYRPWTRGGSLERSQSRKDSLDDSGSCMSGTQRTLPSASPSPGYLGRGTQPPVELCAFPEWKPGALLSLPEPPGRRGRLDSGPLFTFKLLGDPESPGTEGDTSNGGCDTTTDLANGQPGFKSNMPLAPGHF
T2 sequence (P23944 whole entry): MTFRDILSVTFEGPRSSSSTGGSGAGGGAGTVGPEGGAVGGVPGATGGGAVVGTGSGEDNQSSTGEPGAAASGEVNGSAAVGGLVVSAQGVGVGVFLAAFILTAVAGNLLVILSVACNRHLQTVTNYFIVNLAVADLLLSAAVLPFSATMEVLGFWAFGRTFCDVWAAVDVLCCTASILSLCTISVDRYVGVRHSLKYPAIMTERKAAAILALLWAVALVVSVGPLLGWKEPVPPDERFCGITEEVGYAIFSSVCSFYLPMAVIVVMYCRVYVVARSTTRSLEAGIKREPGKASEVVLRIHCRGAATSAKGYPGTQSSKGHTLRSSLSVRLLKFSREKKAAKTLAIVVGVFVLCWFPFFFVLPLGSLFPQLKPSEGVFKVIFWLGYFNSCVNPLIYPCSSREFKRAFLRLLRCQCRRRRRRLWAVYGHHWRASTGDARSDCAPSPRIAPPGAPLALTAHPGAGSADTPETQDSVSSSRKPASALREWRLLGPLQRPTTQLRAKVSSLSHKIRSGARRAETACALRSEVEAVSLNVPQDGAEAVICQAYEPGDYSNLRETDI
T2 sequence (P43140 whole entry): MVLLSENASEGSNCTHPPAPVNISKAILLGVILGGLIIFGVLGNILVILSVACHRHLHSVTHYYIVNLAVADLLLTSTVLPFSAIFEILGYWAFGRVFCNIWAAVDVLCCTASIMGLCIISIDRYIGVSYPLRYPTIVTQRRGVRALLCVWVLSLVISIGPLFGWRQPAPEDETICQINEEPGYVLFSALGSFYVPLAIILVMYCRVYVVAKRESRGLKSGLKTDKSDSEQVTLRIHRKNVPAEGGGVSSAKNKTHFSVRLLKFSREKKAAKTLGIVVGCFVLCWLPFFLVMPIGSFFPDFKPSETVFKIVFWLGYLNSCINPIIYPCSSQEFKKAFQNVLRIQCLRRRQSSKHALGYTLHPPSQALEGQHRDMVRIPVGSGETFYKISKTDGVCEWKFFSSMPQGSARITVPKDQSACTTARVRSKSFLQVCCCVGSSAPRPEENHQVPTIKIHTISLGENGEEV

Sus scrofa = species: Sus scrofa; assay: Calcium antagonistic activity was evaluated from the inhibition of CaCl2-induced contraction of depolarized pig coronary artery; format: functional; details: Sus scrofa, Coronary artery
[3] = molecular target: T2, Adrenergic receptor alpha-1; assay: Alpha-1-adrenolytic activity was assessed in vitro from the ability to inhibit norepinephrine-induced contraction of rat aorta preparation

Q: With CO/C(O)=C1\C(C)=NC(C)=C(C(=O)OCCN(C)C[C@@H]2COc3ccccc3O2)[C@H]1c1cccc([N+](=O)[O-])c1.Cl as the molecule, how does the IC50 [1] read?
A: The IC50 was 19000 nM.

Q: And the IC50 (Rattus norvegicus)?
A: The IC50 was 1 nM.

Q: What about the IC50 [2] of the same molecule?
A: The IC50 was 2000 nM.

Q: What about the IC50 (Sus scrofa) of the same molecule?
A: The IC50 was 2.5 nM.

Q: What about the IC50 [3] of the same molecule?
A: Its IC50 is >> 0.00001 M.

Q: For COC(=O)C1=C(C)NC(C)=C(C(=O)OCCN(C)Cc2ccccc2)C1c1cccc([N+](=O)[O-])c1 (centres undefined) [NICARDIPINE], which IC50 [1] is on record?
A: The IC50 was 1400 nM.

Q: What about the IC50 (Rattus norvegicus) of the same molecule?
A: The IC50 was 0.026 nM.

Q: And the IC50 [2]?
A: The IC50 was 3600 nM.

Q: What about the IC50 (Sus scrofa) of the same molecule?
A: The IC50 was 0.3 nM.

Q: What about the IC50 [3] of the same molecule?
A: Its IC50 is > 0.00001 M.

Q: For COc1cc2nc(N3CCN(C(=O)c4ccco4)CC3)nc(N)c2cc1OC [PRAZOSIN], which IC50 (Rattus norvegicus) is on record?
A: The IC50 was 3000 nM.

Q: For COC(=O)C1=C(C)NC(C)=C(C(=O)OCCN(C)C[C@H]2COc3ccccc3O2)[C@@H]1c1cccc([N+](=O)[O-])c1.Cl (racemic), which IC50 [1] is on record?
A: The IC50 was 210 nM.

Q: And the IC50 [2]?
A: The IC50 was 1900 nM.

Q: What about the IC50 [3] of the same molecule?
A: Its IC50 is 0.00003 M.

Q: For CC1=NC(C)=C(C(=O)OCCN(C)CC2COc3ccccc3O2)C(c2cccc([N+](=O)[O-])c2)/C1=C(\O)OC(C)C.Cl (centres undefined), which IC50 [1] is on record?
A: The IC50 was 830 nM.

Q: And the IC50 (Rattus norvegicus)?
A: Its IC50 is 0.06 nM.

Q: What about the IC50 [2] of the same molecule?
A: The IC50 was 3500 nM.

Q: What about the IC50 (Sus scrofa) of the same molecule?
A: Its IC50 is 4 nM.

Q: And the IC50 [3]?
A: Its IC50 is >> 0.00003 M.
